Data from patent US9745261B2, “Inhibitors of the MITF molecular pathway” (THE GENERAL HOSPITAL CORPORATION, priority 2013, dated 2017).

Legend:
SK-MEL-5 cells = experiment: SK-MEL-5 cell cytotoxicity assay (CellTiter-Glo); assay type: cell-based, human; conditions: FIG. 13
Protocol: (§1) SK-MEL-5 cells were treated with compounds for 24 hours, and then cell viability was measured using the CellTiter-Glo Assay (Promega), a luciferase-based reagent that measures cellular ATP levels. The compounds were tested at different concentrations to determine IC50 values. Compounds that were active in the primary assay and toxic below 30 μM at 24 hours were considered for probe development. Data were normalized against DMSO in Genedata Screener's Assay Analyzer.
(§2) SK-MEL-5 cells were maintained in DMEM (10% FBS, 1% Pen-Strep-Glutamine). Cells were fluid changed every 3 days and/or split upon reaching 100% confluency. For secondary assays, cells were thawed at 4 million cells per Falcon T175 flask. After 3 days, the cells were fluid changed, after 3 more days cells were passed to a Corning Triple flask (10-15 million cells) and plated after 3 days in the triple flask.
Day 1 • 1. Plate SK-MEL-5 cells at 3,000 per well in 30 uL media (phenol red free DMEM/10% Fetal Bovine Serum/Penicillin/Streptomycin/L-Glutamine) • 2. Use Corning white 384-well, square, opaque-bottomed plates (Corning Catalog No. 8867BC)
Day 2 • 3. Pin 100 nL compound/DMSO solution (Cybi Well) into assay plates. (For HTS, required sentinel pinning with the positive control, parthenolide (6 mM)) • 4. […]
(§3) Day 3 • 5. […] Read on the Perkin-Elmer EnVision plate reader with luminescence (LUM) settings for 0.1 sec per well. […]

A375 cells = experiment: A-375 cell cytotoxicity assay (CellTiter-Glo); assay type: cell-based, human; conditions: FIG. 13
Protocol: as §1, with “A375 cells were” for “SK-MEL-5 cells were”, “assay and were not toxic below” for “assay and toxic below”
as §2, with “A-375” for “SK-MEL-5”, “90%” for “100%”, “2” for “4”, “days,” for “days, the cells were fluid changed, after 3 more days”, “(6-8” for “(10-15”
Day 1 • 1. Plate A-375 cells at 3,000 per well in 30 uL media (phenol red free DMEM/10% Fetal Bovine Serum/Penicillin/Streptomycin/L-Glutamine) • 2. Use Corning white 384-well, square, opaque-bottomed plates (Corning Catalog No. 8867BC)
Day 2 • 3. Pin 100 nL compound/DMSO solution (Cybi Well) into assay plates. (For HTS, required sentinel pinning with the positive control, parthenolide (6 mM)) • 4. Incubate 24 hours at 37° C. in Liconic incubator.
as §3

MALME-3M cells = experiment: MALME-3M cell cytotoxicity assay (CellTiter-Glo); assay type: cell-based, human; conditions: FIG. 13
Protocol: as §1, with “MALME-3M” for “SK-MEL-5”
as §2, with “MALME-3M” for “SK-MEL-5”, “IMDM (20%” for “DMEM (10%”, “6” for “4”, “days,” for “days, the”, “(15-18” for “(10-15”
Day 1 • 1. Plate MALME-3M cells at 3,000 per well in 30 uL media (phenol red free IMDM/10% Fetal Bovine Serum/Penicillin/Streptomycin/L-Glutamine) • 2. Use Corning white 384-well, square, opaque-bottomed plates (Corning Catalog No. 8867BC)
Day 2 • 3. Pin 100 nL compound/DMSO solution (Cybi Well) into assay plates, including the positive control. • 4. Incubate 24 hours at 37° C. in Liconic incubator.
as §3

CDK2 = experiment: qPCR assay for CDK2 expression in SK-MEL-5 cells; assay type: cell-based, human; conditions: qPCR
Protocol: SK-MEL-5 cells were treated with compounds for 24 hours. Next, cells were lysed with DNase I (Ambion, from Cell to CT Lysis Mix). Lysed cells were delivered to a RT-PCR plate (Ambion, Cells to CT RT Mix) and the plates were then processed for reverse transcription to create cDNA. qPCR was performed by transferring cDNA from the RT-PCR plate to a qPCR plate containing PCR master mix (Roche, Probes Master), FAM Taqman probe/primer set for the target gene (human MITF, Applied Biosystem, 4331182 Hs01117294_m1), VIC Taqman probe/primer set for a house keeping gene (human GAPDH, Applied Biosystems C10228) and water. qPCR plates were cycled using a real-time PCR instrument (Roche, Light Cycler). Using the instrument software, a cycle call was generated when each well enters log phase amplification (Ct). The delta Ct value was determined by subtracting the Ct value of the control gene (GAPDH) from the Ct value of the target gene (MITF) in each well. The delta delta Ct value of each compound treatment was determined by averaging the delta Ct values of the mock well on each plate and subtracting that average from the delta Ct value of each compound well. […]
• 10. […] The RT assay plates are incubated at 37° C. for 1 hour and the reverse transcriptase is inactivated by incubating the plates for 1 minute at 95° C. • 13. cDNA is stored at −80° C. until ready for qPCR analysis […]

[1] = tested on: MITF and MITF target genes; experiment: qPCR of MITF and MITF target genes in human melanoma cell lines and primary melanocytes; assay type: cell-based; conditions: 24 h, multiple cell lines
Protocol: (§4) Experiments described in this example were performed using methods as described in Haq et al. (2013). Oncogenic BRAF regulates oxidative metabolism via PGC1α and MITF. Cancer Cell. 2013 Mar. 18; 23(3):302-15.
Effect of ML329 (24 h at indicated concentration) on MITF mRNA and target gene mRNA expression in melanoma cell lines. mRNA was quantified by qPCR.

[2] = tested on: human melanoma cell lines; experiment: Cell viability of human melanoma cell lines (CellTiter-Glo, 48-72 hours); assay type: cell-based
Protocol: as §4
(§5) Indicated cell line was treated with varying concentrations of ML329 for 48-72 hours. Viability was measured using the CellTiter-Glo reagent (Promega).

non-melanoma cells = experiment: Non-melanoma cell viability (CellTiter-Glo, 48-72 hours); assay type: cell-based
Protocol: as §4, §5

MITF protein = MITF protein by Western immunoblotting in SKMEL-5 cells; assay type: cell-based, human
Protocol: as §4
MITF protein was detected using Western immunoblotting. In parallel, SK-MEL-5 cells treated with ML329 (above) were lysed and MITF mRNA was quantified by qPCR (FIG. 12b).

| SMILES | Cell viability, SK-MEL-5 (MITF-dependent), result in words (SK-MEL-5 cells) | Cell viability, A-375 (MITF-independent), result in words (A375 cells) | Cell viability, MALME-3M (MITF-dependent), result in words (MALME-3M cells) | CDK2 expression, result in words (CDK2) | Effect on MITF mRNA and target gene mRNA expression [1] | Sensitivity of melanoma cell lines (cell viability) ([2]; A375, SKMEL2, IPC298 and SK30) | Cytotoxicity in a large number of melanoma cells ([2]; CellTiter-Glo, incl. vemurafenib-resistant lines) | Sensitivity of melanoma cell lines (cell viability) ([2]; SKMEL5, IST MEL, MALME-3M and 501 MEL) | Sensitivity of melanoma cell lines (cell viability) ([2]; UACC257, C32, COLO800 and MZ2MEL) | Cytotoxicity in non-melanoma cells or melanoma cells lacking MITF (non-melanoma cells) | Effect on MITF protein (MITF protein) |
| --- | --- | --- | --- | --- | --- | --- | --- | --- | --- | --- | --- |
| Cc1nc2ccccc2n1/N=C/c1ccc([N+](=O)[O-])s1 | specific activity against the MITF-dependent cells | no impairment of viability | specific activity against the MITF-dependent cells | reduced the expression | – | – | – | – | – | – | – |
| NS(=O)(=O)c1ccc(NC2=CC(=O)c3ccccc3C2=O)cc1 [ML329, 4-((1,4-dioxo-1,4-dihydronaphthalen-2-yl)amino)benzenesulfonamide] | – | – | – | – | suppresses MITF and its transcriptional activity | less sensitive | variably cytotoxic | very sensitive | sensitive | not cytotoxic | suppresses MITF protein |
